The values below come from patent publication US8466161B2, “Hydroxamate derivative, a production method for the same, and a pharmaceutical composition comprising the same” (Chong Kun Dang Pharmaceutical Corp., priority 2009, dated 2013).

This assay concerns HL60 cell line. Kind of assay: Inhibitory effect on growth of HL60 cell line (MTT). It is filed as cell-based. The settings on record: Homo sapiens, HL-60, 72 h, 3 days culture. The procedure:
In the culture of HL60 cells, 10% FBS-containing RPMI1640 medium was used Each of test substances was serially diluted in DMSO to a concentration of 10 mg/ml and serially diluted in PBS to a final concentration ranging from 100 μg/ml to 0.03 μg/ml. 20 μl (micro-liter) of each of the serially diluted test substances and 180 μl (micro-liter) of a medium containing 60×10^4 cells/ml were added to a 96-well plate and cultured under conditions of 37° C. and 5% CO2 for 3 days. After completion of the culture, 50 μl (micro-liter) of a solution of 1.25 mg/ml MTT (3-(4,5-dimethylthiazol-2-yl)-2,5-diphenyltetrazolium bromide) in PBS was added to each well of the plate and incubated at 37° C. for 3 hours. The formed formazan crystal was dissolved in 150 μl (micro-liter) of DMSO, and the absorbance at 570 nm was measured.

pIC50: −log10 of the molar value.

`CS(=O)(=O)N(CCCCCCC(=O)NO)c1ccc(-c2ccc3cc[nH]c3c2)nc1` [Compound 326, 7-(N-(6-(1H-indol-6-yl)pyridin-3-yl)methylsulfonamido)-N-hydroxyheptanamide] showed a pIC50 of 7.30 to 7.70.
In the case of `Cc1cc2cc(-c3ccc(N(CCCCCCC(=O)NO)S(C)(=O)=O)cc3)ccc2[nH]1` [Compound 296, N-hydroxy-7-(N-(4-(2-methyl-1H-indol-5-yl)phenyl)methylsulfonamido)heptanamide] it was 7.00 to 7.30.
Under `CN1CCN(C(=S)N(CCCCCCC(=O)NO)c2ccc(-c3ccc4[nH]ccc4c3)cc2)CC1` [Compound 358, 7-(N-(4-(1H-indol-5-yl)phenyl)-4-methylpiperazine-1-carbothioamido)-N-hydroxyheptanamide] stands 7.30 to 7.70; under `O=C(CCCCCCN(C(=O)c1ccccn1)c1ccc(-c2ccc3[nH]ccc3c2)cc1)NO` [Compound 305, N-(4-(1H-indol-5-yl)phenyl)-N-(7-(hydroxyamino)-7-ooxheptyl)picolinamide], 7.30 to 7.70; under `CS(=O)(=O)N(CCCCCCC(=O)NO)c1ccc(-c2ccc3[nH]ccc3c2)nc1` [Compound 328, 7-(N-(6-(1H-indol-5-yl)pyridin-3-yl)methylsulfonamido)-N-hydroxyheptanamide], 7.30 to 7.70.
Under `CN1CCN(C(=S)N(CCCCCCC(=O)NO)c2ccc(-c3ccc4cc[nH]c4c3)cc2)CC1` [Compound 357, 7-(N-(4-(1H-indol-6-yl)phenyl)-4-methylpiperazine-1-carbothioamido)-N-hydroxyheptanamide] stands 7.00 to 7.30; under `CN(C)S(=O)(=O)N(CCCCCCC(=O)NO)c1ccc(-c2ccc3cc[nH]c3c2)cc1` [Compound 277, 7-((4-(1H-indol-6-yl)phenyl)(N,N-dimethylsulfamoyl)amino)-N-hydroxyheptanamide], 7.00 to 7.30.
As to `O=C(CCCCCCN(c1ccc(-c2ccc3cc[nH]c3c2)cc1)S(=O)(=O)c1cccnc1)NO` [Compound 263, 7-(N-(4-(1H-indol-6-yl)phenyl)pyridine-3-sulfonamido)-N-hydroxyheptanamide], the pIC50 is 7.30 to 7.70.
In the case of `CNC(=O)N(CCCCCCC(=O)NO)c1ccc(-c2ccc3cc[nH]c3c2)cc1` [Compound 275, 7-(1-(4-(1H-indol-6-yl)phenyl)-3-methylureido)-N-hydroxyheptanamide] it was 7.00 to 7.30.
Under `CN(C)CC(=O)N(CCCCCCC(=O)NO)c1ccc(-c2ccc3cc[nH]c3c2)cc1` [Compound 265, 7-(N-(4-(1H-indol-6-yl)phenyl)-2-(dimethylamino)acetamido)-N-hydroxyheptanamide] stands 7.00 to 7.30; under `COc1cccc(NC(=O)N(CCCCCCC(=O)NO)c2ccc(-c3ccc4cc[nH]c4c3)cc2)c1` [Compound 256, 7-(1-(4-(1H-indol-6-yl)phenyl)-3-(3-methoxyphenyl)ureido)-N-hydroxyheptanamide], 7.00 to 7.30.
In the case of `CCN1CCN(C(=O)N(CCCCCCC(=O)NO)c2ccc(-c3ccc4c(cnn4C)c3)cc2)CC1` [Compound 351, 4-ethyl-N-(7-(hydroxyamino)-7-oxoheptyl)-N-(4-(1-methyl-1H-indazol-5-yl)phenyl)piperazine-1-carboxamide] it was 7.30 to 7.70; in that of `COc1cc(NC(=O)N(CCCCCCC(=O)NO)c2ccc(-c3ccc4cc[nH]c4c3)cc2)cc(OC)c1` [Compound 260, 7-(1-(4-(1H-indol-6-yl)phenyl)-3-(3,5-dimethoxyphenyl)ureido)-N-hydroxyheptanamide], 7.00 to 7.30.
`CCNC(=O)N(CCCCCCC(=O)NO)c1ccc(-c2ccc3cc[nH]c3c2)cc1` [Compound 295, 7-(1-(4-(1H-indol-6-yl)phenyl)-3-ethylureido)-N-hydroxyheptanamide] gave a pIC50 of 7.00 to 7.30.
Under `CCS(=O)(=O)N(CCCCCCC(=O)NO)c1ccc(-c2ccc3cc[nH]c3c2)cc1` [Compound 276, 7-(N-(4-(1H-indol-6-yl)phenyl)ethylsulfonamido)-N-hydroxyheptanamide] stands 7.30 to 7.70.
